Columns and labels:
[1] = tested on: cells infected with SARS-CoV; details: cited from earlier work
COVID-19 = test: Example 1: randomized open-label study of pulsed iNO versus standard of care in COVID-19, initial data; type: in vivo; details: three COVID-19 patients that completed the regimen
Description: This example discloses a randomized, open-label study to assess the efficacy and safety of pulsed iNO compared to standard of care (SOC) in subjects with COVID-19 who are hospitalized and require supplemental oxygen without assisted ventilation. Up to 500 subjects are randomized to receive either (a) iNO 125 mcg/kg IBW/hr for at least 8 hours and up to 24 hours daily for 3 days to 14 days or until resolution or discharge at the discretion of the Investigator, or (b) standard of care. No placebo arm is used. Subjects are followed through Day 28 to assess their clinical status. The primary objective in this study is to verify the efficacy of iNO in subjects with COVID-19. The secondary objective in this study is to evaluate the safety of iNO in subjects with COVID-19.
Outcomes are assessed using an outcome scale assessed 14 days after randomization.
Prior to receiving treatment with iNO, subjects were screened to confirm eligibility. […] Subjects in the iNO group are treated by means of an INOpulse device using a readily available cannula on site.
At day 0 of the study, subjects testing positive for COVID-19 are evaluated for vital signs, blood chemistry, and a chest x-ray or CT scan, and an overall physical exam is performed. Daily vital signs, oxygen measurements (pulse oximetry), methemoglobin levels, and adverse events are assessed through the entire course of treatment. […]

SARS = details: human, in vivo; cited from earlier work
COVID-19 (SARS-CoV-2) = test: Example 2: INOpulse (pulsed iNO) expanded access series in hospitalized patients with hypoxemia due to COVID-19; type: in vivo; details: for ratio of oxygen saturation to fraction of inspired oxygen (SpO2/FiO2), median: FiO2 estimated from oxygen flow
[2] = tested on: severe acute respiratory syndrome-related coronavirus (SARS-CoV); details: cited from earlier work
[3] = one subject (CVD19-029), higher dose 250 mcg/kg IBW/hour (approximately 40 ppm)
[4] = patients that completed iNO treatment and were discharged

[N]=O [iNO, nitric oxide]
cellular survival of cells infected with SARS-CoV [1]: improves cellular survival | need for mechanical ventilation (COVID-19): avoid the need for mechanical ventilation | oxygenation (COVID-19; iNO 125 mcg/kg IBW/hr): improved oxygenation | arterial oxygenation (SARS): improvements in arterial oxygenation | chest radiography (SARS): reduction in density of lung infiltrates | supplemental oxygen and need for ventilatory support (SARS): reduction in supplemental oxygen and need for ventilatory support | time to hospital discharge (SARS): shorter time to hospital discharge | Oxygen Saturation (SpO2), Median (COVID-19 (SARS-CoV-2); Discharge): 95% | Oxygen Therapy (L/min), Median (COVID-19 (SARS-CoV-2); Discharge, n=20): 0.0 L/min | 8 Point Ordinal Scale, Median (COVID-19 (SARS-CoV-2); Discharge, scale of Table A): 7 | Oxygen Saturation (SpO2), Median (COVID-19 (SARS-CoV-2); Post-iNO): 95% | 8 Point Ordinal Scale, Median (COVID-19 (SARS-CoV-2); Post-iNO (first day off iNO), scale of Table A): 4 | Oxygen Therapy (L/min), Median (COVID-19 (SARS-CoV-2); Post-iNO, n=22): 2.0 L/min | ratio of oxygen saturation to fraction of inspired oxygen (SpO2/FiO2), median (COVID-19 (SARS-CoV-2); baseline (start of iNO)): 229 | Oxygen Saturation (SpO2), Median (COVID-19 (SARS-CoV-2); iNO-End): 95% | Oxygen Therapy (L/min), Median (COVID-19 (SARS-CoV-2); iNO-End, n=22): 3.3 L/min | 8 Point Ordinal Scale, Median (COVID-19 (SARS-CoV-2); iNO-End, scale of Table A): 4 | Oxygen Therapy (L/min), Median (COVID-19 (SARS-CoV-2); iNO-Start (baseline), n=24, iNO 125 mcg/kg IBW/hour): 5.0 L/min | Oxygen Saturation (SpO2), Median (COVID-19 (SARS-CoV-2); iNO-Start (baseline), pulse oximetry): 94% | 8 Point Ordinal Scale, Median (COVID-19 (SARS-CoV-2); iNO-Start, scale of Table A (1 death to 8 not hospitalized, no limitations)): 4 | patients discharged from the hospital at the time of report (COVID-19 (SARS-CoV-2); of 24 COVID-19 positive patients): 19 patients | deaths (COVID-19 (SARS-CoV-2); of 24 patients, elderly person with severe comorbidities, iNO for less than 24 hours): one | ratio of oxygen saturation to fraction of inspired oxygen (SpO2/FiO2), median (COVID-19 (SARS-CoV-2); on completion of iNO): 286 | clinical response (COVID-19 (SARS-CoV-2); [3]): responded well and was discharged home without supplemental oxygen | tolerability (COVID-19 (SARS-CoV-2); [3]): well tolerated | Time to Discharge from hospitalization (median, range) (COVID-19 (SARS-CoV-2); [4]): 10 (6-23) Days | Time to Discharge from start of iNO (median, range) (COVID-19 (SARS-CoV-2); [4]): 6 (3-14) Days | ratio of oxygen saturation to fraction of inspired oxygen (SpO2/FiO2), median (COVID-19 (SARS-CoV-2); period after iNO): 346 | replication of SARS-CoV [2]: inhibits the replication
